# Experimental data: ChEMBL document CHEMBL3217428, “Synthesis and evaluation of novel 5-sulfonyl-indolin-2-ones as potent cytotoxic agents” (Medchemcomm, 2011)
# The source made the active and inactive calls. The calls are words filed in the database; no cut-off is given here.
# Legend:
# [1] = target: Fibroblast growth factor receptor 2 (Homo sapiens) (UniProt P21802); experiment: Inhibition of FGFR2 (unknown origin) at 50 uM
# [2] = Cytotoxicity against human SGC7901 cells; format: functional, cell-based; settings: SGC-7901
# A549 [3] = experiment: Cytotoxicity against human A549 cells; format: functional, cell-based
# HCT-116 = experiment: Cytotoxicity against human HCT116 cells; format: functional, cell-based
# [4] = Cytotoxicity against human ECA109 cells; format: functional, cell-based; settings: ECa-109
# HUVEC [5] = experiment: Antimigratory activity in HUVEC at 2 uM; format: functional, cell-based; settings: Homo sapiens
# A549 [6] = experiment: Induction of apoptosis in human A549 cells assessed as hypodiploid DNA at 5 uM after 72 hrs by flow cytometry; format: functional, cell-based
# A549 [7] = experiment: Induction of apoptosis in human A549 cells assessed as DNA fragmentation at 1.25 to 5 uM after 72 hrs by flow cytometry; format: functional, cell-based
# A549 [8] = experiment: Cell cycle arrest in human A549 cells assessed as accumulation at sub-G0/G1 phase at 5 uM after 72 hrs by flow cytometry; format: functional
# HUVEC [9] = experiment: Antiangiogenic activity in HUVEC assessed as reduction in anastomoses formation by matrigel assay; format: functional, cell-based; settings: Homo sapiens
# HUVEC [10] = experiment: Antiangiogenic activity in HUVEC assessed as reduction in tube formation by matrigel assay; format: functional, cell-based; settings: Homo sapiens
# A549 [11] = experiment: Induction of apoptosis in human A549 cells at 5 uM after 72 hrs by flow cytometry; format: functional
# Chain of Fibroblast growth factor receptor 2 (Homo sapiens) (P21802 22-821 limits assumed): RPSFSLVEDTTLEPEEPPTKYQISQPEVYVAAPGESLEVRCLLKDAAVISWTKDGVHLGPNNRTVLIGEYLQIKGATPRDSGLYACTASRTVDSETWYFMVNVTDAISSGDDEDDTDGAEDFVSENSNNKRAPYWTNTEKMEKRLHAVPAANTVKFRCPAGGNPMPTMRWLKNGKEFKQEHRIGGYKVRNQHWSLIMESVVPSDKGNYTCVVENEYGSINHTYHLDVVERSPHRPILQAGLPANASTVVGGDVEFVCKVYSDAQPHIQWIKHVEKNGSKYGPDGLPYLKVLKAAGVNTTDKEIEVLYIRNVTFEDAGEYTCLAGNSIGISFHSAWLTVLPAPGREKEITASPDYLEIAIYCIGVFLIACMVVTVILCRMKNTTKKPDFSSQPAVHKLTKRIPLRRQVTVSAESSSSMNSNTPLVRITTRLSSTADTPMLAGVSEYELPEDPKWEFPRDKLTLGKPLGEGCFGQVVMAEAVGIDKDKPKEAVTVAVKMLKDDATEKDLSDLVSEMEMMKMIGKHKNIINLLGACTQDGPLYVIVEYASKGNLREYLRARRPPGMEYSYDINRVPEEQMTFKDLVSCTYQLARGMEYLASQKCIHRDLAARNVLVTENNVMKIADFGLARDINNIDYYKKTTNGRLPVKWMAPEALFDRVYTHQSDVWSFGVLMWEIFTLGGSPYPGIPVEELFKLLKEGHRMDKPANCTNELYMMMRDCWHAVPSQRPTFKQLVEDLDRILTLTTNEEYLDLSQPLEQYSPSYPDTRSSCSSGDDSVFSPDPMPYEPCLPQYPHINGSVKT
SMILES,inhibition [1] [%],IC50 [2] [µM],IC50 (A549 [3]) [µM],IC50 (HCT-116) [µM],IC50 [4] [µM],Activity (HUVEC [5]),Activity (A549 [6]),Activity (A549 [7]),inhibition (A549 [3]),Activity (A549 [8]) [%],Activity (HUVEC [9]),Activity (HUVEC [10]),Activity (A549 [11]) [%]
CCN(CC)CCNC(=O)c1c(C)[nH]c(/C=C2\C(=O)Nc3ccc(S(=O)(=O)/C=C/c4ccc(Cl)cc4)cc32)c1C,72,2.58,2.85,1.95,4.84,,,,,,,,
O=c1c(O)c(-c2ccc(O)c(O)c2)oc2cc(O)cc(O)c12,67.3,,,,,,,,,,,,
Cc1[nH]c(/C=C2\C(=O)Nc3ccc(/C=C/S(=O)(=O)c4ccc(F)cc4)cc32)c(C)c1C(=O)NCCCN(C)C,,6.35,> 12.5,9.84,2.87,,,,,,,,
CCN(CC)CCNC(=O)c1c(C)[nH]c(/C=C2\C(=O)Nc3ccc(/C=C/S(=O)(=O)c4ccccc4)cc32)c1C,,5.82,6.86,6.44,2.7,,,,,,,,
CCN(CC)CCNC(=O)c1c(C)[nH]c(/C=C2\C(=O)Nc3ccc(/C=C/S(=O)(=O)Cc4ccc(Cl)cc4)cc32)c1C,,> 25,> 25.3,> 25,> 25,,,,,,,,
CCN(CC)CCNC(=O)c1c(C)[nH]c(/C=C2\C(=O)Nc3ccc(S(=O)(=O)/C=C/c4ccccc4)cc32)c1C,,4.99,2.87,2.41,1.37,,,,,,,,
CCN(CC)CCNC(=O)c1c(C)[nH]c(/C=C2\C(=O)Nc3ccc(/C=C/S(=O)(=O)c4ccc(F)cc4)cc32)c1C,76.6,6.87,,1.82,5.74,Active,Active,Active,Dose-dependent effect,68.21,Dose-dependent effect,Dose-dependent effect,
CCN(CC)CCNC(=O)c1c(C)[nH]c(/C=C2\C(=O)Nc3ccc(/C=C/S(=O)(=O)Cc4ccccc4)cc32)c1C,,14.5,8.05,13.7,10.6,,,,,,,,
CCN(CC)CCNC(=O)c1c(C)[nH]c(/C=C2\C(=O)Nc3ccc(/C=C/S(C)(=O)=O)cc32)c1C,,16.7,29.1,2.64,12.5,,,,,,,,
CCN(CC)CCNC(=O)c1c(C)[nH]c(/C=C2\C(=O)Nc3ccc(/C=C/S(=O)(=O)Cc4cccc(F)c4)cc32)c1C,,11.1,8.41,12.7,7.33,,,,,,,,
CCN(CC)CCNC(=O)c1c(C)[nH]c(/C=C2\C(=O)Nc3ccc(/C=C/S(=O)(=O)c4ccc(Br)cc4)cc32)c1C,67.8,2.28,5.21,3.35,6.23,,,,,,,,
CCN(CC)CCNC(=O)c1c(C)[nH]c(/C=C2\C(=O)Nc3ccc(/C=C/S(=O)(=O)Cc4ccc(F)cc4)cc32)c1C,,> 12.5,> 12.5,> 12.5,> 12.5,,,,,,,,
CCN(CC)CCNC(=O)c1c(C)[nH]c(/C=C2\C(=O)Nc3ccc(F)cc32)c1C [SUNITINIB],61.8,18.6,18.6,2.11,16.9,,,,,,Dose-dependent effect,Dose-dependent effect,15.81
Cc1[nH]c(/C=C2\C(=O)Nc3ccc(/C=C/S(=O)(=O)c4ccc(F)cc4)cc32)c(C)c1C(=O)NCCN(C)C,,6.25,6.62,7.2,2.99,,,,,,,,
CCN(CC)CCCNC(=O)c1c(C)[nH]c(/C=C2\C(=O)Nc3ccc(/C=C/S(=O)(=O)c4ccc(F)cc4)cc32)c1C,,3.45,> 12.5,5.77,4.75,,,,,,,,
